# According to US9198894B2, “Uses of 15-benzylidene-14-deoxy-11,12-didehydroandrographolide derivatives in the preparation of antineoplastic drugs” (Zhengzhou University, priority 2010, dated 2015):
# Several values for one entry are separate records, joined by “and”; a condition that tells them apart may be missing. Equal entries are not always repeated. Marks after values point to notes of the source that are not given here.
# Columns and labels:
# [1] = test system: SGC-7901 human gastric cancer; test: Colony formation assay, SGC-7901; assay type: cell-based
# Protocol: (§1) 1) Cell lines: Cell lines of SGC-7901 human gastric cancer, A549 human lung adenocarcinoma and Hela human cervical carcinoma were purchased from the Type Culture Collection of the Chinese Academy of Sciences, Shanghai, China.
# (§2) 3) Method: Colony formation assay was used. The cells were trypsinized to generate a single-cell suspension and seeded in a 6-well plate at a density of 100 cells/well, then drug-containing medium was added to the well to make the final concentration of compound to 0, 1.25, 2.50, 5.00, 7.50, 10.00 μmol/L, respectively. The experiments were performed in duplicate, and the cells were cultured at 37 in a humidified atmosphere with 5% CO2. Terminate cell culture when the clones can be seen in the culture plate, then remove the culture medium, and wash twice with PBS, fix the cells with methanol (5 ml/well) for 15 min and stain the cells with hematoxylin-eosin stain. The number of clones which comprised more than 50 cells was counted under a TS100-F-PH microscope (Nikon Company, Japan). Calculate relative colony formation ratio (%) and the IC50 values. Relative colony formation ratio (%)=(colony number of drug-administration well/colony number of control well)×100%.
# [2] = test system: Hela human cervical carcinoma; test: Colony formation assay, Hela; assay type: cell-based; conditions: Hela; read-out: Inhibition against tumor cell colony formation IC50
# Protocol: as §1, §2
# [3] = test system: 5637 human urinary bladder cancer cells; test: Wound healing (two-dimensional migration) assay, 5637; assay type: cell-based; conditions: 5637, 10.00 μmol/l, 24 h (FIG. 1C)
# Protocol: (§3) 1) Cell lines: Cell lines of 5637 human bladder carcinoma, Eca-109 human esophageal carcinoma, HT29 human colon cancer, SGC-7901 human gastric cancer, A549 human lung adenocarcinoma and PC-3 human prostate carcinoma were purchased from the Type Culture Collection of the Chinese Academy of Sciences, Shanghai, China.
# (§4) 3) Methods: The cells were trypsinized to generate a single-cell suspension and seeded in 96-well plates (200 μl/well), and incubated with medium containing 10% fetal bovine serum at 37 in a humidified atmosphere with 5% CO2. Following a 24 h incubation, the cells were starved for an additional 12 h in low-serum media (1% FBS). The cultures of Eca-109, HT29, 5637, SGC-7901, A549 and PC-3 were then scratched away with a 200-μl plastic pipette tip and rinsed twice with PBS to remove wound-derived loose and dislodged cells. The cells were cultured in replaced medium without or with compounds at final concentrations of 0, 2.50, 5.00 and 10.00 μmol/L, respectively. At least seven randomly selected views along the scraped line in each well were photographed immediately and 24 h and 36 h after incubation using a digital camera at 50× magnification. The average scraped area in each well under each treatment condition was measured, and the percentage of inhibition against cell migration was calculated. % of inhibition=1−(A0−At)/(A′0−A′t)×100%, where, A0 and At are the areas of wound with compound treatment measured immediately and 24 or 36 h post-injury, respectively; A′0 and A′t are the areas of wound without compound treatment measured immediately and 24 or 36 h post-injury, respectively.
# [4] = test system: PC-3 human prostate carcinoma cells; test: Wound healing (two-dimensional migration) assay, PC-3; assay type: cell-based; conditions: PC-3, 10.00 μmol/l, 36 h (FIG. 1F)
# Protocol: as §3
# as §4, with “The cells were cultured in replaced medium without or with compounds at final concentrations of 0, 2.50, 5.00 and 10.00 μmol/L, respectively. At least seven randomly selected views along the scraped line in each well were photographed immediately and 24 h and 36 h after incubation using a digital camera at 50× magnification.” left out
# [5] = test system: A549 human lung adenocarcinoma; test: Colony formation assay, A549; assay type: cell-based
# Protocol: as §1, §2
# [6] = test system: B16-F10 mouse melanoma cells; assay type: in vivo; conditions: B16-F10, C57BL/6 mice, 30.00 mg/kg ig 24 d
# Protocol: 1) Animals: A total of 20 C57BL/6 male mice of clean grade [Number of Animal License: SCXK (Xiang) 2009-0004], weighing 18-22 g, were purchased from Hunan Slca Jingda Experimental Animal Center Company, Ltd., China.
# 2) Cells: B16-F10 mouse melanoma cells were purchased from Nanjing KeyGen Biotech. Co. Ltd., China.
# (§5) 4) Method: B16-F10 cells in logarithmic growth phase were trypsinized, then resuspended in RPMI1640 medium containing 10% fetal bovine serum and centrifuged at 1000 rpm for 5 min. The supernatant was removed and sterile PBS was added to prepare single-cell suspension (10^7/mL). The murine melanoma lung metastasis model was established in mice via caudal vein injection of B16-F10 cells (0.2 ml/mouse). Mice were randomly divided into 4 groups (n=5) according to body weight, and 24 h later they were administrated intragastrically (ig; 0.2 ml/10 g) once a day continuously for 24 d with vehicle (tumor control group), Cyc (30 mg/kg), compound 3 at 0.85 mmol/kg and 1.10 mmol/kg. Mice were weighed and blood was collected by removing the eyeball at 24 h after the last administration. Sacrificed the mice, removed the lung and counted the number of melanoma nodules in lungs of mice under an anatomical lens. Serum obtained after centrifugation at 3000 rpm for 20 min (3K30 refrigerated centrifuge, Sigma, USA) was conserved at −20° C. Levels of TNF-α and IL-1β in serum were measured by ELISA method, which were performed in accordance with the instructions of the kits.
# Data were expressed as mean±SD and statistical analysis was performed by SPSS Statistics 17.0 using a one-way analysis of variance (ANOVA) followed by unpaired t-test. A value of P<0.05 was considered statistically significant. The inhibition ratio (IR %) of lung metastasis was calculated as follows: IR %=(Nc−Nt)/Nc×100%, where Nc is the average number of nodules in lung tissues of vehicle, and Nt is that of mice treated with drugs.
# TNF-α = assay type: in vivo, mouse; conditions: mouse, in vivo, 30 mg/kg
# [7] = assay type: in vivo, mouse; conditions: C57BL/6 mice, before vs 24 d after administration, Cyc 30 mg/kg ig
# Protocol: as §5
# IL-1β = assay type: in vivo, mouse; conditions: mouse, in vivo, 30 mg/kg
# Murine hepatoma H22 = test: Anti-tumor and anti-angiogenesis effects on H22 tumor-bearing mice; assay type: in vivo, mouse; conditions: H22 mice, 20.00 mg/kg ig once a day 7 d
# Source text: 1) Animals: Kunming mice of clean grade, half male and half female, body weight 20±2 g, were purchased from the experimental animal center of Henan Province, China. Qualified Certificate number: SCXK (Yu) 2005-0001.
# 2) Cells: Murine hepatoma H22 cells were presently obtained from Henan Academy of Medical and Pharmaceutical Sciences (Zhengzhou, China).
# Cyclophosphamide (Cyc) was produced by Tianjin Jingshi Pharmaceutical Co., Ltd., China (approval number of medicine: H12021006). Gelatin and carmine red were supplied by Sigma Chemical (St. Louis, Mo., U.S.A). All other chemicals and reagents were of the highest commercial grade available. All drugs were prepared with normal saline emulsified with Tween-80 (0.1% v/v) and dispersed in carboxymethylcellulose (0.5% v/v). 10% (W/V) carmine solution was prepared with salt solution containing 5% (W/V) gelatin which should be used immediately after preparation. The rest of medicines and reagents and the methods for preparation were the same with that of EXAMPLE 1.
# 4) Method: The H22 cells after in vivo passage for 7 d were diluted with physiological saline to adjust to a concentration of 1×10^7/mL, injected to the armpit of right forelimb of mice subcutaneously (0.2 ml/mouse), then mice were divided into 10 groups (n=12; 6 male and 6 female per group) randomly. 24 h later each group of mice was administrated intragastrically (ig; 0.2 ml/10 g) once a day continuously for 7 d with vehicle (tumor control group and control group), Cyc (standard control), or compounds at the tested doses. After the last drug administration and a following fasting of 8 h, each mouse was anesthetized with 1% pentobarbital in normal saline solution (80 mg/kg; ip). Mice of control group were injected with 5% gelatin in normal saline solution (40) via the tail vein (1 ml/mouse); whereas mice of other groups were injected replaced by 10% carmine red and 5% gelatin in normal saline solution (40). Mice were killed, then freezed in a refrigerator at −20 for 2 h to solidify. Tumors were segregated, weighed and homogenized with 3 M NaOH solution (10 ml/g tumor). The homogenate supernatant was prepared by being centrifuged for 20 min at 14000 rpm, and the absorbance at 490 nm was assayed using a PowerWaveX Microplate Scanning Spectrophotometer (Bio-tek Instruments, Inc). The carmine red content was calculated based on the standard curve. The vascular index (VI) expressed as milligram of carmine red per gram of tumor tissue. The inhibition ratio (IR) of tumor growth was calculated using the formula: IR (%)=[(Wc−Wt)/Wc]×100%, where Wc is the average tumor weight of the control group, and Wt is that of the drug treatment group. Data were expressed as mean±SD and statistical analysis was performed by SPSS Statistics 17.0 using a one-way analysis of variance (ANOVA) followed by unpaired t-test. A value of P<0.05 was considered statistically significant.
# S180 murine sarcoma = test: Growth, invasion and metastasis of S180 sarcoma in tumor-bearing mice; assay type: in vivo, mouse
# Protocol: 1) Animals: Be the same with that of EXAMPLE 4.
# 2) Cells: The S180 murine sarcoma cells were obtained from Henan Academy of Medical and Pharmaceutical Sciences (Zhengzhou, China).
# 4) Method: Mice were randomly divided into 10 groups (n=12). The S180 cells after in vivo passage for 7 d were diluted with physiological saline to adjust to a concentration of 1×10^7/mL. The inoculation of tumor cells was conducted in two batches, those of tumor control group I and groups treated with compounds 1 or 3 were in batch 1, those of tumor control group II, Cyc group and the compound 2 groups were in batch 2. The mice were injected with S180 cells (0.2 ml/mouse) into the armpit of right forelimb subcutaneously, and 24 h later each group of mice was administrated intragastrically (ig; 0.2 ml/10 g) once a day continuously for 9 d with vehicle (tumor control group), Cyc (standard control), or compounds at the tested doses. On day 10, kill the mice, observe and record the degree of invasion and metastasis of tumor tissues, then the tumor tissues were segregated and weighed. The inhibition ratio (IR) of tumor growth was calculated by the following formula: IR (%)=[(Wc−Wt)/Wc]×100%, where Wc is the average tumor weight of the control group, and Wt is that of the treatment group. Data were expressed as mean±SD and statistical analysis was performed by SPSS Statistics 17.0 using a one-way analysis of variance (ANOVA) followed by unpaired t-test. A value of P<0.05 was considered statistically significant.
# [8] = read-out: Inhibition against tumor cell colony formation IC50
smiles,measurement,setting,value
C=C1CCC2C(C)(CO)C(O)CCC2(C)C1C=CC1=CC(=Cc2ccccc2)OC1=O (centres unmarked) [Compound 4],Inhibition of colony formation compared with andrographolide,[1],remarkably stronger than that of andrographolide
same,IC50,[1]; [8],5.07 µM
same,IC50,[2],4.84 µM
same,Inhibitory effect on two-dimensional migration,[3],much stronger than that of other tumor cells
same,Inhibitory effect on two-dimensional migration,[4],much stronger than that of other tumor cells
same,Inhibition of colony formation compared with andrographolide,[5],remarkably stronger than that of andrographolide
same,IC50,[5]; [8],4.51 µM
"O=P1(N(CCCl)CCCl)NCCCO1 (centres unmarked) [Cyc, Cyclophosphamide, reference compound]",IR (%) of lung metastasis,[6]; 30 mg/kg,47.92%
same,Lung index,"[6]; mean ± s, n = 5",6.66 ± 0.37 mg/g
same,Nodule number (melanoma nodules in lungs),"[6]; mean ± s, n = 5",43.76 ± 11.70
same,TNF-α in serum,TNF-α,8.45 ± 9.54
same,Average increase in body weight,[7],0.7 g
same,IL-1β in serum,IL-1β,41.58 ± 4.39 pg/mL
same,IR (%) of tumor growth,Murine hepatoma H22,29.34* %
same,Carmine contents,Murine hepatoma H22; mean ± s,4.24 ± 2.29
same,"VI (vascular index, mg carmine red per g tumor tissue)",Murine hepatoma H22; mean ± s,4.87 ± 1.13 mg/g
same,IR (%) of S180 sarcoma growth,S180 murine sarcoma; 30.00 mg/kg ig once a day 9 d,53.61% and 53.61 ± 12.43 %
same,Average invasion and metastasis grade,"S180 murine sarcoma; S180, grades 0-4, 30.00 mg/kg",3.67
same,Mouse Number Grade 0,"S180 murine sarcoma; S180 invasion, Grade 0: no invasion, 30.00 mg/kg",0
same,Mouse Number Grade 1,"S180 murine sarcoma; S180 invasion, Grade 1: invasion to right forelimb, 30.00 mg/kg",0
same,Mouse Number Grade 2,"S180 murine sarcoma; S180 invasion, Grade 2: right forelimb and the left side of body, 30.00 mg/kg",0
same,Mouse Number Grade 3,"S180 murine sarcoma; S180 invasion, Grade 3: also the ribs and muscles in chest, 30.00 mg/kg",4
same,Mouse Number Grade 4,"S180 murine sarcoma; S180 invasion, Grade 4: invasion into chest or abdominal cavity, 30.00 mg/kg",8
